According to publication PMC7868322, “Rational Design of A Novel Small-Molecule HIV-1 Inactivator Targeting Both gp120 and gp41 of HIV-1” (Frontiers in Pharmacology, 2021):
“And” between values parts separate entries of the source, which are not always exact repeats. Equal entries are not always repeated. Where two headings read alike, the source gives them in different places.

Key:
HIV-1 IIIB gp120 = HIV-1 IIIB gp120 (Human immunodeficiency virus type 1 group M subtype B, UniProt P04578); assay: ELISA inhibition of gp120 CD4bs-targeting mAbs binding to gp120; parameters: polystyrene plates were coated with 50 µL of HIV-1 IIIB gp120
Experimental: Flow cytometry was used to detect compounds that competed with gp120 CD4bs-targeting mAbs for binding to gp120. In brief, 100 µL of FD016 at a concentration of 100 µM or PBS was first incubated with CHO-WT cells expressing HIV-1 HXB2 gp120 for 30 min at room temperature, and then gp120 CD4bs-targeting mAbs (5 μg/mL, 100 µL) and FITC-labeled goat anti-human secondary antibody were added successively. After three washes, the cells were analyzed with flow cytometry. ELISA was carried out to detect the activity of compounds that inhibit the binding of soluble CD4 (sCD4) or gp120 CD4bs-targeting mAbs to gp120 as previously described ([Si et al., 2004]; [Curreli et al., 2014]). Briefly, for sCD4 and gp120 binding, 50 µL of HIV-1 IIIB gp120 at 0.5 μg/mL was captured on polystyrene plate coated with sheep anti-gp120 antibody D7324 (Aalto Bio Reagents). sCD4 (ImmunoDiagnostics, Inc.) at 200 ng/mL was then added in the presence of an equal volume of different concentrations of compounds or PBS and incubated at 37°C for 1 h. Next, rabbit anti-sCD4 IgG (ImmunoDiagnostics, Inc.) at 250 ng/mL was added and incubated at 37°C for another 1 h, followed by goat anti-rabbit IgG-biotin (Invitrogen), streptavidin-horseradish peroxidase (Invitrogen). For gp120 CD4bs-targeting mAbs and gp120 binding, polystyrene plates were coated with 50 µL of HIV-1 IIIB gp120 (2 μg/mL in 0.1 mol/L sodium bicarbonate buffer (pH 8.6)) at 4°C overnight and then blocked with PBS containing 2% BSA at 37°C for 2 h. Next, gp120 CD4bs-targeting mAbs at 2 μg/mL were added in the presence of an equal volume of FD028 at different concentrations and incubated at 37°C for 1 h. Horseradish peroxidase (HRP)-labeled goat-anti-human IgG (Sigma-Aldrich) was added sequentially. After adding 3,3′,5,5′-tetramethylbenzidine chromogen substrate and sulfuric acid, the absorbance at 450 nm (A450) was recorded using a Microplate Reader (Tecan, Männedorf, Switzerland).

92/UG/001 (D, R5 and X4) = assay: Inhibition of HIV-1 clinical virus infection; assay type: cell-based; details: Human immunodeficiency virus 1; HIV-1 clinical virus 92/UG/001 (D, R5 and X4); means ± SD
[1] = molecular target: T1, 6HB formation between N36 and C34-biotin (Human immunodeficiency virus type 1 group M subtype B, UniProt P04578); assay: ELISA inhibition of six-helix bundle formation; assay type: biochemical, HIV-1; details: IC50, inhibition of 6HB formation between N36 and C34-biotin, peptides 0.5 μM final
T1 construct: preincubated with N36 peptide (2 μM, 50 μL) at 37°C for 1 h; purchased NIH AIDS Reagent Program
Experimental: An inhibitor (compound or C-peptide control) at graded concentrations was preincubated with N36 peptide (2 μM, 50 μL) at 37°C for 1 h. […] Subsequently, 50 μL of the mixture were added to the wells of the NC-1-coated plate, followed by incubation for 1 h. Then, HRP-labeled streptavidin and the substrate were added sequentially. The optical density at 450 nm was measured using a microplate reader (Tecan, Männedorf, Switzerland).

96USSN20 (A, R5 and X4) = assay: Inhibition of HIV-1 clinical virus infection; assay type: cell-based; details: Human immunodeficiency virus 1; HIV-1 clinical virus 96USSN20 (A, R5 and X4); means ± SD
[2] = system: T2635-resistant virus Q79E N126K; assay type: cell-based, HIV-1; details: means ± SD
[3] = system: T20-resistant virus V38E N42S; assay type: cell-based, HIV-1; details: means ± SD
[4] = molecular target: T2, 6HB formation between N36 and C34 (Human immunodeficiency virus type 1 group M subtype B, UniProt P04578); assay: N-PAGE inhibition of six-helix bundle formation; assay type: biochemical, HIV-1; details: peptides 40 μM final
T2 construct: purchased NIH AIDS Reagent Program
Experimental: The sample was mixed with Tris-glycine native sample buffer and then loaded onto the 18% Tris-glycine gel. Gel electrophoresis was carried out with 125 V constant voltage at room temperature for 3 h.

[5] = system: T20-resistant virus V38A N42T; assay type: cell-based, HIV-1; details: inactivation of cell-free virions, means ± SD
WT (NL4-3 D36G) = assay type: cell-based, HIV-1; details: T20-resistant virus panel, means ± SD
[6] = system: T2635-resistant virus K90E N126K; assay type: cell-based, HIV-1; details: means ± SD
[7] = system: T2635-resistant virus H3C; assay type: cell-based, HIV-1; details: T2635-resistant virus H3C (A6V L33S Q66R N126K H132Q E136G); means ± SD
[8] = system: T20-resistant virus V38A N42D; assay type: cell-based, HIV-1; details: means ± SD
[9] = system: T2635-resistant virus N113E; assay type: cell-based, HIV-1; details: means ± SD
92/UG/024 (D, X4) = assay: Inhibition of HIV-1 clinical virus infection; assay type: cell-based; details: Human immunodeficiency virus 1; HIV-1 clinical virus 92/UG/024 (D, X4); means ± SD
[10] = system: T2635-resistant virus Q66R N126K; assay type: cell-based, HIV-1; details: inactivation of cell-free virions, means ± SD
T20-resistant virus V38A = assay type: cell-based, HIV-1; details: inactivation of cell-free virions, means ± SD
[11] = system: T2635-resistant virus N113E; assay type: cell-based, HIV-1; details: inactivation of cell-free virions, means ± SD
HIV-1 IIIB = assay: Inactivation of cell-free HIV-1 virions (PEG-6000 precipitation, p24 ELISA); assay type: cell-based; details: Human immunodeficiency virus 1, IIIB; cell-free virions, 1 h at 4°C, PEG-6000 precipitation; read-out: EC50, inactivation of HIV-1 IIIB
[12] = system: T2635-resistant virus Q79E N126K; assay type: cell-based, HIV-1; details: inactivation of cell-free virions, means ± SD
[13] = system: T2635-resistant virus K90E; assay type: cell-based, HIV-1; details: inactivation of cell-free virions, means ± SD

CC1(C)CC(NC(=O)C(=O)Nc2ccc(Cl)c(F)c2)CC(C)(C)N1C(=O)COc1ccc(CCN2C(=O)/C(=C/c3ccc(-c4ccc(Cl)c(C(=O)O)c4)o3)SC2=S)cc1 [FD028, (Z)-2-Chloro-5-(5-((3-(4-(2-(4-(2-((4-Chloro-3-Fluorophenyl)amino)-2-oxoacetamido)-2,2,6,6-Tetramethylpiperidin-1-yl)-2-oxoethoxy)phenethyl)-4-oxo-2-Thioxothiazolidin-5-ylidene)methyl)furan-2-yl)benzoic Acid]
IC50 (HIV-1 IIIB gp120; ELISA, mAb 2G12, read-out: IC50, inhibition of 2G12 binding to gp120): 1420 nM | IC50 (HIV-1 IIIB gp120; ELISA, mAb 654-30D, read-out: IC50, inhibition of 654-30D binding to gp120): 700 nM | IC50 (HIV-1 IIIB gp120; ELISA, mAb B12, read-out: IC50, inhibition of B12 binding to gp120): 460 nM | IC50 (HIV-1 IIIB gp120; ELISA, mAb HJ16, read-out: IC50, inhibition of HJ16 binding to gp120): 770 nM | IC50 (HIV-1 IIIB gp120; ELISA, mAb N6, read-out: IC50, inhibition of N6 binding to gp120): 1230 nM | IC50 (HIV-1 IIIB gp120; ELISA, mAb VRC01, read-out: IC50, inhibition of VRC01 binding to gp120): 420 nM | IC50 (HIV-1 IIIB gp120; ELISA, range over the mAbs, read-out: IC50, inhibition of binding of gp120 to different gp120 CD4bs-targeting mAbs): 420 to 1420 nM | IC50 (HIV-1 IIIB gp120; IC50, inhibition of 3BNC117 binding to gp120, ELISA, mAb 3BNC117): 520 nM | IC50 (92/UG/001 (D, R5 and X4)): 450 ± 120 nM | IC50 [1]: 2030 nM and ~2000 nM | IC50 (96USSN20 (A, R5 and X4)): 200 ± 10 nM | IC50 [2]: 200 ± 70 nM | IC50 [3]: 240 ± 20 nM | IC50 [4]: 100000 to 200000 nM | EC50 [5]: 320 ± 110 nM | IC50 (WT (NL4-3 D36G)): 170 ± 60 nM | IC50 [6]: 460 ± 110 nM | IC50 [7]: 270 ± 60 nM | IC50 [8]: 480 ± 110 nM | IC50 [9]: 570 ± 130 nM | IC50 (92/UG/024 (D, X4)): 1040 ± 160 nM | EC50 [10]: 140 ± 70 nM | EC50 (T20-resistant virus V38A): 780 ± 190 nM | EC50 [11]: 1200 ± 160 nM | EC50 (HIV-1 IIIB): 710 nM | EC50 [12]: 120 ± 20 nM | EC50 [13]: 550 ± 230 nM
